# According to patent publication US9877916B2, “Methods and compositions for treating aged skin” (ELC Management LLC, priority 2016, dated 2018):
# Tested on: normal human dermal fibroblasts (NHDF) from a donor
# Test: collagen induction assay (Pro-collagen Type I EIA) in aged fibroblasts
# Assay type: cell-based
# Conditions: 72 hr, 18 ug/ml, positive control
# Description: Moringa oleifera seed extract was tested at various concentrations for its ability to stimulate collagen production in normal human dermal fibroblasts (“NHDF”) from a donor in a collagen induction assay. Moringa oleifera extract diluted in dimethylsulfoxide (“DMSO”) (% concentrations 0.003125, 0.00625 and 0.0125), Moringa oleifera […] diluted in Dulbecco's Modified Eagle Medium supplemented with 10% Hyclone® bovine calf serum and 1% Cellgro® penicillin-streptomycin solution (“DMEM”) (% concentrations of 0.0000625, 0.000125, 0.00025, 0.0005), positive control (L-ascorbic acid, 18 ug/ml), and DMEM alone were tested. Cell Growth and Maintenance. Aged NHDF were obtained from ZenBio. Fibroblasts were cultured in DMEM 1× (Life Tech) supplemented with 10% bovine calf serum (Hyclone) and 1% PenStrep solution (Cellgro). Cells were regularly maintained; subcultured as needed. Normal human dermal fibroblasts (NHDF, aged) were plated on a 96-well plate in supplemented DMEM (as indicated above). […] Alamar Blue results were determined using a plate reader. Data was analyzed using the SoftMax Pro software and Excel. Collagen production was assessed using the Pro-collagen Type I collagen EIA Kit (Takara) as per manufacturer's protocol, exactly as described. Plate was read using the Gemini M2E plate reader and results were compared. […]
structure (smiles),measurement,value
"O=C1O[C@H]([C@@H](O)CO)C(O)=C1O [L-ascorbic acid (+Control), L-ascorbic acid]",% increase in collagen induction,+16%
